Laboratory results as given in patent US6906175B2, “Production of adenine nucleotide translocator (ANT), novel ANT ligands and screening assays therefor” (priority 1998, dated 2005).

How the values were obtained:
[1] = target: T1, GST-huANT3 recombinantly produced in E. coli (membranes) (Homo sapiens, UniProt P12236); assay: Saturation binding of [32P]ATP to E. coli membranes, huANT3-producing cells; details: atractyloside 10μM added to the assay
T1 construct: Gly-Ser-Pro-Gly-Ile-Leu-Met, where “Met” indicates the amino acid encoded by the translation initiation codon of huANT3; made in house; host or cells: E. coli (crude membrane preparation)
T1 sequence (P12236 1-298): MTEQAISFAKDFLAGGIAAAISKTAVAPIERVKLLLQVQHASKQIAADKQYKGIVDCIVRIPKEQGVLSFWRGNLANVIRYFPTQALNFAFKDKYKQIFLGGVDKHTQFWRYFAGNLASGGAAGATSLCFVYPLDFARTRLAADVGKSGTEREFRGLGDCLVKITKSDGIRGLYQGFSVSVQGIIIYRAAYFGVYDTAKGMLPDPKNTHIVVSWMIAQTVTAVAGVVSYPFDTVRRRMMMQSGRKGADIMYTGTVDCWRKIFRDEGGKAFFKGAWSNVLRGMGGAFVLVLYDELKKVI
Procedure: Following arabinose induction, transformed or sham transformed (vector only) E coli were collected by centrifugation at 2000 g for 10 min. The bacterial pellets were resuspended in MSB, to which lysozyme (100 μg/ml) was added. After 20 min at room temperature, the lysates were subjected to one freeze-thaw cycle followed by sonication as described above. The resultant membrane preparation was used for binding assays.
[…] The membranes with bound ATP were sedimented by centrifugation at 5000 g for 5 min, and washed once with binding buffer. Membrane pellets were then mixed with 5 ml scintillation cocktail and counted.

[2] = 125I-compound 24 competition binding (Tube Assay), mitochondria from control non-infected T. ni cells; details: control (nontransformed) T. ni mitochondria, 1 μg protein/tube; FIG. 15
Procedure: Atractyloside analogs (Example 6; Table 1; see also Examples 7-9) were also used in pseudo-homologous competition binding assays using T. ni/huANT3 mitochondria or bovine mitochondria. Mitochondria from noninfected T. ni cells, or T. ni cells infected with a baculovirus expressing huANT3 (see Example 3) were prepared as follows: […] cells were prepared by a subcontractor (PharMingen, San Diego, Calif.) as portions of about 250 mg of cells per tube. […]
The mitochondrial preparations were divided into aliquots (typically, 50μl for T. ni mitochondria or 20 μl for bovine mitochondria) and then either used directly in assays or flash frozen and stored at −80° C. The total protein content in the mitochondrial preparations was determined using the enhanced protocol (30 minutes at 60° C.; see http://www.ruf.rice.edu/˜bioslabs/methods/protein/BCA.html) of the bicinchoninic acid (BCA) assay (available in kit form from Pierce, Rockford, Ill.). […]
Unbound ^125I-compound 24 was removed by aspiration. […] The resultant pellets were aspirated and the radioactivity (dpm) in each was determined by gamma counting.

[3] = target: T2, bovine mitochondria (ANT) (Bos taurus, UniProt P02722); assay: 125I-compound 24 competition binding (Tube Assay), beef heart mitochondria
T2 construct: from tissue; host or cells: bovine heart mitochondria
T2 sequence (P02722 2-298 limits assumed): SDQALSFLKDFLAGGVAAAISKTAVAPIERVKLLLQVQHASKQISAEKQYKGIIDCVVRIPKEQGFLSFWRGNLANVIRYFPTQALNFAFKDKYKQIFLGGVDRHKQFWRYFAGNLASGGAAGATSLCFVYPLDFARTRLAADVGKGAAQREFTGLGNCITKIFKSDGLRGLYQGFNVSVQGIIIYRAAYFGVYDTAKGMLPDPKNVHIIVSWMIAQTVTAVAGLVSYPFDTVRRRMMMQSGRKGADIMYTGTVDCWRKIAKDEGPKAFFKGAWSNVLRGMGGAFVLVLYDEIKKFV
Procedure: Bovine mitochondria were prepared as follows: Essentially all of the fat and cholesterol […] was removed from two bovine hearts which were then cut into 1-inch cubes. The cubes were ground in a meat grinder using the fine setting. Three hundred (300) […] portions of the ground heart were weighed out and, to each was added 400 ml of Isolation Buffer (IB; 250 mM sucrose, 1 mM sodium succinate, 0.2 mM K^+EDTA, 10 mM Tris-base, pH 7.8). (All buffers were filter sterilized, and column buffers were degassed, and, unless otherwise noted, all steps were carried out at 0 to 4° C. on ice or in pre-cooled rotors and centrifuges.) The preparations were mixed in a blender two times for 15 seconds on high setting and, in between and after blends, the pH was adjusted to 7.8 with 2M Tris-base. The homogenate was centrifuged for 20 minutes at 1,200×g, and the supernatant was poured through two layers of cheese cloth and adjusted to pH 7.8 with 2M Tris-base. The supernatant was then centrifuged for 30 minutes at […]. The supernatant was decanted, and the buff-colored outer pellet was dislodged with about 10 ml of IB and discarded. The brown inner pellet (heavy mitochondria) was resuspended in IB (about 10 ml per pellet). The pellets were homogenized in a glass-teflon homogenizer (2 passes at high drill speed). Samples were combined and centrifuged for 30 minutes at 11,000×g. The supernatant was decanted, and the pellets were resuspended in 60 ml of IB per 900 gm of ground heart. This centrifugation step was repeated and the pellets were finally resuspended in IB (60 ml per 900 gm of ground heart). One kilogram of beef heart typically yields about one (1) gram of mitochondria
The mitochondrial preparations were divided into aliquots (typically, 50μl for T. ni mitochondria or 20 μl for bovine mitochondria) and then either used directly in assays or flash frozen and stored at −80° C. The total protein content in the mitochondrial preparations was determined using the enhanced protocol (30 minutes at 60° C.; see http://www.ruf.rice.edu/˜bioslabs/methods/protein/BCA.html) of the bicinchoninic acid (BCA) assay (available in kit form from Pierce, Rockford, Ill.).
In the “Tube Assay,” mitochondria (from about 1 to 10 μg of total protein) were resuspended in 100 μl of Tris-KCl buffer with 0.1% BSA, pH 7.4. ^125I-labeled compound 24 (Example 11) was added to a final concentration of 0.5 nM. When used, competitors were added at these concentration ranges: unlabeled atractyloside or compound 24 final concentration from 5 nM to 10 μM; unlabeled ADP (a lower affinity competitor) was added at a final concentration of 500 nM to 1 mM.
The reaction mixes were incubated on ice for 60 minutes and then pelleted by centrifugation (approximately 16,000×g) for 11 minutes at 4° C.
Unbound ^125I-compound 24 was removed by aspiration. The pellets were contact-washed with Tris-KCl buffer, pH 7.4, and recentrifuged. The resultant pellets were aspirated and the radioactivity (dpm) in each was determined by gamma counting.

In the case of `C=C1[C@@H]2CCC3[C@@](CC[C@@H]4[C@H](C(=O)O)C[C@@H](O[C@@H]5O[C@H](CO)[C@@H](OS(=O)(=O)[O-])[C@H](OS(=O)(=O)[O-])[C@H]5OC(=O)CC(C)C)C[C@@]34C)(C2)[C@@H]1O.[K+].[K+]` (some centres unmarked) [ATR, atractyloside], the “effect on ATP binding” value [1] is reported as “abolished”, the “competitive inhibition of 125I-compound 24 binding (in words)” value [2] is reported as “only slight inhibition” and the IC50 ([3]; 0.5 nM 125I-compound 24, FIG. 17, read-out: IC50, competitive inhibition of 125I-compound 24 binding) is reported as about 0.044 µM. The “affinity relative to the low affinity ANT ligand ADP” value ([3]; 1 μg protein/tube, FIG. 13) was “about 1,000 fold” and the “competitive inhibition of 125I-compound 24 binding (in words)” value ([3]; FIGS. 11, 13, 16) was “slightly higher affinity than compound 24”.
